Experimental data: patent publication US20040059104A1, “Nucleotide mimics and their prodrugs” (priority 2002, published 2004)
Like-named read-outs stand apart in the source and are kept apart here.

Columns and labels:
Staphylococcus aureus = assay: Antimicrobial assay, minimal inhibitory concentration; assay type: cell-based
Description: (§1) To examine the antimicrobial potential of the nucleotide mimics of the present invention an assay was employed that allowed the screening of a large number of compounds simultaneously. The type of bacteria chosen to screen the compounds are organisms associated with human disease and represent major groups of bacteria based on their structure and metabolism. Bacterial cultures of Escherichia coli and Staphylococcus aureus were incubated overnight at 37° C. in a shaker incubator. A lawn of each overnight bacterial culture was made by plating […] of bacteria on agar plates containing Nutrient Broth. Immediately after plating, sterile blank paper discs were put on top of the lawn and a compound was applied to each blank paper disc. Plates were then incubated overnight and examined for the inhibition of bacterial growth the following day. […] The plates were incubated overnight at 37° C. and then examined spectrophotometrically at 600 nm to determine the minimum concentration of each compound that inhibited replication of bacteria as determined by no increase in absorbance at 600 nm.

in vitro [1] = assay: in vitro
Description: Typically the total volume used for the experiment was 500 μl. The final concentrations of the reaction components were as follows:
The reacton mixtures were made up and incubated at 37° C. At appropriate times aliquots of 25 μl were removed and added to 65 μl ice-cold methanol. These solutions were our at −20° C. and typically overnight. After incubation samples were inutes at high speed in a microcentrifuge. The supernatant was nd the extract was dried under vacuum in a LabConco Centrivap Concentrator. The dried extracts were resuspended in dH2O and filtered to remove particulate before analysis on reverse phase HPLC.
The reverse phase HPLC columns used for the analysis were either a Phenomenex C18 Aqua column (2×100 mm) or the Phenomenex C18 Aqua column (3×150 mm) used with the appropriate guard column. The HPLC was run at 0.2 ml/min (for the 2×100 mm column) or at 0.5 ml/min (for the 3×150 mm column) with the following buffer system: 5 mM tetrabutylammonium acetate, 50 mM ammonium phosphate, and an acetonitrile gradient running from 5% up to as high as 60%. The amount of remaining parent compound at each time point was used to determine the half-life of the compound. […] Unmodified nucleoside triphosphates were used as positive controls.

in vitro [2] = assay: in vitro; remark: listed apart in the source
Description: The stability of compounds in cell extracts was examined as follows:
Cell lysis buffer was added to cell pellets and the cells frozen and thawed 3× using dry ice. The lysis buffer (LB) was composed of the following: 50 mM Tris-HCl, pH 7.4 (100 μl/ml 10× stock), 20% glycerol (200 μl/ml), and 0.5% Triton X-100 (5 μl/ml). 100 μl of LB was added to each microfuge tube containing 10^7 frozen CEM cells. After the cells were lysed the extracts were centrifuged at high speed in a microcentrifuge for 5 minutes and the clarified cell extract transferred to a new tube. The cell stability reaction mixtures contained concentrations of buffer, magnesium, nucleotide, and cell extract as shown below:
The reaction mixtures were incubated at 37° C. At each time point, including at time zero, 12.5 μl aliquots were added to 40 μl ice-cold methanol. […] The samples were incubated in methanol for at least 60 minutes and typically overnight at −20° C. prior to further processing. The cell extracts were centrifuged at high speed in refrigerated microcentrifuge for 20 minutes and the supernatant transferred to a new tube. The extract was then dried under vacuum in a LabConco Centrivap Concentrator. The samples were then resuspended in 40 or 50 μl dH2O, filtered to remove any particulate, and analyzed by reverse phase HPLC.
The reverse phase HPLC columns used for the analysis were either a Phenomenex C18 Aqua column (2×100 mm) or the Phenomenex C18 Aqua column (3×150 mm) used with the appropriate guard column. The HPLC flow rate was either 0.2 ml/min (for the 2×100 mm column) or 0.5 ml/min (for the 3×150 mm column) with the following buffer system: 5 mM tetrabutylammonium acetate, 50 mM ammonium phosphate, and an acetonitrile gradient running from 5% up to as high as 60%. The amount of remaining parent compound at each time point was used to determine the half-life of the compound. […] Unmodified nucleoside triphosphates were used as positive controls.

[3] = target: T1, HIV Reverse Transcriptase (Type B, 66 kDa subunit) (Human immunodeficiency virus type 1 group M subtype B, UniProt P04585); assay: HIV Reverse Transcriptase inhibition assays (RNA-directed DNA polymerization, PicoGreen fluorescence); assay type: biochemical; settings: Table 1; template (homopolymer or heteropolymer RNA) not stated; read-out: Ki, Inhibition of HIV Reverse Transcriptase by Nucleotide Mimics
T1 construct: purified HIV Reverse Transcriptase (Type B, 66 kDa subunit)
Description: The assays employed to measure inhibition of HIV Reverse Transcriptase (HIV RT) catalyzed/RNA-directed DNA polymerization are described below. The effectiveness of the compounds of the present invention as inhibitors of HIV RT-catalyzed DNA polymerization was measured in the following assays.
This assay was used to measure the ability of the nucleotide mimics of the present invention to inhibit the enzymatic synthesis of complementary strand DNA from a DNA-primed template of homopolymeric RNA. This assay is a modification of a published procedure (Seville, et al., “Fluorometric Assay for DNA Polymerases and Reverse Transcriptase”, BioTechniques 1996, 21, 664-72).
The compounds were tested at various concentrations up to 500 μM final concentration. DNA polymerase activity was measured in a reaction buffer containing primed-RNA template and dTTP diluted to appropriate concentrations in assay buffer. Nucleotide mimics of the present invention were diluted in buffer and pipetted into the wells of a 96-well plate. The reaction was initiated by addition of enzyme and allowed to proceed at 37° C. for 10 minutes. The reaction was quenched by addition of 5 μL 0.2 M EDTA, pH 8.0.
200 μL of diluted PicoGreen dsDNA Quantitation Reagent (Molecular Probes, Inc, Eugene, Oreg.) was added to each well of a 96-well plate and incubated at room temperature for 5 minutes. Plate wells were read on a microplate fluorometer (Molecular Devices Corp., Sunnyvale, Calif.). The wells were excited at 480 nm and the fluorescence emission intensity (RFU) was measured at 520 nm. The percentage of inhibition was calculated according to the following equation:
% Inhibition=[1−(RFU in test reaction−RFU in blank)/(RFU in control reaction−RFU in blank)]×100.
Each inhibitor was titrated over an appropriate range of concentrations, and inhibition constants were determined using the following equations:
v=Vm[S]/(Km(1+[I]/Ki)+[S])
Certain compounds of the present invention were also tested to determine their ability to inhibit HIV RT-catalyzed DNA polymerization on a heteropolymeric primed-RNA template in the presence of all four natural deoxynucleotide triphosphate (dNTP) substrates. This assay is a modification of a published procedure (Parker et al., “Mechanism of Inhibition of Human Immunodeficiency Virus Type 1 Reverse Transcriptase and Human DNA Polymerases α, β, and γ by the 5′-Triphosphates of Carbovir,3′-Azido-3′-deoxythymidine,2′-3′-Dideoxyguanosine, and 3′-Deoxythymidine”, J. Biol. Chem. 1991, 266 (3), 1754-62).
HIV RT DNA polymerase activity was measured in a reaction buffer containing primed-ribosomal RNA template and dNTPs diluted to appropriate concentrations in assay buffer and pipetted into 1.5 mL microcentrifuge tubes. Nucleotide mimics of the present invention were diluted in buffer and tested at various concentrations up to 5 μM final concentration. The reaction was initiated by addition of enzyme and allowed to proceed at 42° C. for 60 to 90 minutes. The reaction was quenched by addition of 12 μL 0.2 M EDTA, pH 8.0.
50 μL each of reaction was transferred to the well of a 96-well plate (in duplicate). 200 μL of diluted PicoGreen dsDNA Quantitation Reagent was added to each well of a 96-well plate and incubated at room temperature for 5 minutes. Plate wells were read on a microplate fluorometer. The wells were excited at 480 nm and the fluorescence emission intensity (RFU) was measured at 520 nm. The percentage of inhibition and inhibition constants […] were determined for representative compounds as described above.

Escherichia coli = assay: Antimicrobial assay, minimal inhibitory concentration; assay type: cell-based; settings: for MIC: Escherichia coli, read-out: E. coli MIC
Description: as §1

HIV-1RF = assay: Anti-HIV-1 cytoprotection assay in CEM-SS cells; assay type: cell-based; settings: CEM-SS cells infected with HIV-1RF, MOI approximately 0.01, 6 days, MTS; read-out: CEM-SS IC50 (Anti-HIV Screening)
Description: (§2) ollowing paper: Structure-Activity and Cross-Resistance unodeficiency Virus Type 1-Specific ckheit, Jr. et al., Antimicrobial Agents and s were evaluated in CEM-SS cell cultures V-1RF at an MOI of approximately 0.01. At he soluble tetrazolium-based dye MTS viability and quantify compound toxicity of metabolically active cells to yield a soluble analysis of cell viability and compound
Efficacy Evaluation in CEM-SS Cells Anti-HIV-1 Cytoprotection Assay
Cell Preparation—CEM-SS cells were passaged in T-75 flasks prior to use in the antiviral assay. On the day preceding the assay, the cells were split 1:2 to assure they were in an exponential growth phase at the time of infection. Total cell and viability quantification was performed using a hemacytometer and trypan blue exclusion. Cell viability was greater than 95% for the cells to be utilized in the assay. The cells were resuspended at 5×10^4 cells/ml in tissue culture medium and added to the drug-containing microtiter plates in a volume of 50 μl.
Virus Preparation—The virus used for these tests was the lymphocytropic virus strain HIV-1RF. This virus was obtained from the NIH AIDS Research and Reference Reagent Program and was grown in CEM-SS cells for the production of stock virus pools. For each assay, a pre-titered aliquot of virus was removed from the freezer (−80° C.) and allowed to thaw slowly to room temperature in a biological safety cabinet. The virus was resuspended and diluted into tissue culture medium such that the amount of virus added to each well in a volume of 50 μl was the amount determined to give between 85 to 95% cell killing at 6 days post-infection.
(§3) At assay termination, the assay plates were stained with the soluble tetrazolium-based dye MTS (CellTiter Reagent Promega) to determine cell viability and quantify compound toxicity. MTS is metabolized by the mitochondrial enzymes of metabolically active cells to yield a soluble formazan product, allowing the rapid quantitative analysis of cell viability and compound cytotoxicity. […] At termination of the assay, 20 μL of MTS reagent was added per well. The microtiter plates were then incubated 4-6 hrs at 37° C. for the HIV cytoprotection assay; the incubation intervals were chosen based on empirically determined times for optimal dye reduction. Adhesive plate sealers were used in place of the lids, the sealed plate was inverted several times to mix the soluble formazan product and the plate was read spectrophotometrically at 490 nm with a Molecular Devices Vmax plate reader.

CEM-SS cells = assay: Compound toxicity in CEM-SS cells (MTS staining); assay type: cell-based; settings: read-out: CEM-SS TC50
Description: as §2, §3

[4] = overnight at 37° C., tested 0-200 μg/ml, NA = Not active
[5] = value in brackets beside the μg/ml value

Molecule | S. aureus MIC (Staphylococcus aureus; [4]) [µg/mL] | S. aureus MIC (Staphylococcus aureus; [5]) | Ki [3] [µM] | IC50 (HIV-1RF) [µM] | CC50 (CEM-SS cells) [µM] | E. coli MIC (Escherichia coli; [4]) [µg/mL] | E. coli MIC (Escherichia coli; [5]) | other results
2′-Deoxy-2′,2′-difluorocytidine 5′-β-O—(S-pivaloyl-2-thioethyl) -α,β-methylene-diphosphonate [Compound 75] | 15 | (26) μM | – | – | – | – | – | –
[BH3-][P+](O)(OCC1OC(n2cc(C)c(=O)[nH]c2=O)CC1N=[N+]=[N-])OP(=O)(O)C(Cl)(Cl)P(=O)(O)O (single isomer, unassigned) [Compound 26-isomer 2, 3′-Azido-3′-deoxythymidine 5′-α-P-borano-β,γ-(dichloromethylene)triphosphate] | – | – | 0.074 | – | – | – | – | half-life at 500 μM (in vitro [1]; bovine, serum, Half-Life, Serum Half-Lives of NTPs and AZT Triphosphate Mimics): 48 h; half-life at 500 μM (in vitro [2]; human, pH 7.4): > 48 h; MIC (Escherichia coli; [4]): 10 µg/mL; MIC (Escherichia coli; [5]): 17.5 µM
3′-Azido-3′-deoxythymidine 5′-α-P-borano-β,γ-diluoromethylene-γ-O-(4-nitrophenyl)triphosphate [Compound 43] | – | – | – | 6.43 | 125 | – | – | –
CC(C)(C)C(=O)SCCOP(=O)(O)CP(=O)(OCCSC(=O)C(C)(C)C)OC[C@H]1O[C@@H](n2ccc(N)nc2=O)C(F)(F)[C@@H]1O (stereo partly drawn) [Compound 76, 2′-deoxy-2′,2′-difluorocytidine 5′-di-α, β-O—(S-pivaloyl-2-thioethyl)-α,β-methylenediphosphonate] | 25 | (35) μM | – | – | – | – | – | Half-Life, Serum Half-Lives of Gemcitibine Diphosphate Mimics and Their Prodrugs (in vitro [1]; Table 8, 50% fetal calf serum, 37° C., 500 μM, time points through 48 hours): >48 h; Half-Life, Cell Extract Half-Lives of Gemcitibine 5'-Methylendiphosphonate and its Prodrugs (in vitro [2]; Table 11, 50% CEM cell extract, 37° C., 500 μM, time points through 48 hours): 37 h
3′-Azido-3′-deoxythymidine 5′-α-P-borano-β,γ-difluoromethylene-γ-O-methyltriphosphate [Compound 40] | – | – | 0.069 | 4 | > 200 | 25 to 50 | (40-80) uM | –
BP(=O)(OC[C@@H]1O[C@H](n2cc(C)c(=O)[nH]c2=O)C[C@H]1N=[N+]=[N-])OP(=O)(O)C(Cl)(Cl)P(=O)(O)O (single isomer, unassigned; isomer 1) [Compound 26-isomer 1, 3′-Azido-3′-deoxythymidine 5′-α-P-borano-β,γ-(dichloromethylene)triphosphate] | – | – | 0.093 | – | – | 12 | (21) uM | Half-Life, Serum Half-Lives of NTPs and AZT Triphosphate Mimics (in vitro [1]; bovine, serum): 45 h; Half-Life, Cell extract Half-Lives of AZT Triphosphate Mimics (in vitro [2]; human): >48 h
